Test results published in patent US20190231783A1, “PHARMACEUTICAL FORMULATIONS” (Corvus Pharmaceuticals, Inc., priority 2018, published 2019).
“And” between values parts separate entries of the source, which are not always exact repeats. Equal entries are not always repeated.

Assays:
[1] = Assay and related substances by HPLC of nanosuspensions, after milling and on storage; assay type: physicochemical
Experimental: Assay and Related Substance Testing. Formulations B, D, and E were tested for assay and related substances (RS) to detect the compatibility with the excipients. […] Assay/RS was not determined at TO for this study.

[2] = Chemical characterization (assay, impurities) of drug-layered beads and capsules, initial and at CRT/ACC storage; assay type: physicochemical
Text: The amount of the smaller size drug nanoparticles increased as the level of coating increased, with the smaller hump representing the particle size distribution of the drug nanoparticle suspension and the larger hum representing the particle size distribution of the sugar spheres, which largely remained unchanged throughout the process. […] The particle size distribution of the drug nanoparticles on sugar spheres was similar to that of the particle size distribution of drug nanoparticles in the film.
The assay was low, most likely due to the size of the batch (200 grams) since the minimum amount of drug suspension had to be used, which is smaller than the optimum size for the Vector FL1 fluid bed.
The capsules were stored and monitored at controlled room temperature (CRT, 25° C./60% RH) and accelerated conditions (ACC, 40° C./75% RH), and evaluated for chemical characterization up to 3 months, as shown in Table 15C and Table 15D, respectively.

[3] = Dissolution of un-milled vs nano-milled Formula (III) suspensions (sink and non-sink); assay type: physicochemical
Experimental: Dissolution at non-sink conditions was tested to further compare un-milled and milled Formula (III) formulations.

[4] = Solubility / kinetic solubility in pH 6.8 phosphate buffer; assay type: physicochemical; settings: 37 °C, thermodynamic from solid
Experimental: Kinetic solubility is a supersaturated or metastable and time-dependent state as opposed to true time-independent equilibrium solubility. […] The bottle was rotated at 50 rpm up to 4 hours at 37° C. Samples were collected at 5, 10, 15, 20, 25, 30, 45, 60, 75, 90, 120, 180, and 240 minutes time points. The samples were filtered using […] PVDF filter and diluted with acetonitrile in 1:1 ratio immediately. The samples were analyzed by HPLC. The concentration of phosphate buffer had only a minor effect on the solubility of the DS or the amorphous solid dispersion (extrudate), and the surfactant made it more difficult to distinguish the enhancement of the solubility.
Solubility Studies. […] Amorphous solid dispersions with 30% drug loading of Formula III with three different stabilizing polymers were evaluated. In particular, excess sample (either Formula (III) milled extrudate or Formula (III) as a control) was added into the bottle containing 120 mL of each media to ensure saturation.
At the same time, SLS diminished the discrimination between the crystalline and amorphous forms. Thus it is advisable to avoid SLS in the dissolution media for kinetic solubility studies.

[5] = Assay and impurities of MBP dispersions, initial and on storage at 40° C./75% RH; assay type: physicochemical; settings: initial (MBP) or API
Experimental: Chemical Characterization of samples.
Stability Studies. All initial samples of the MBP were kept in closed 75 mL HDPE bottles and monitored at 40° C. and 75% relative humidity (RH) for up to 3 months. The physical state and chemical stability were reported by XRPD, and assay and impurity. […] The assay and impurity results from the MBP dispersions, stored at 40° C. and 75% relative humidity closed conditions for up to 3 months, and at 40° C. and 75% relative humidity open conditions for up to 2 weeks are reported in the Tables 9D and 9E below.

[6] = Particle size distribution by laser diffraction (nanomilled suspensions, cast films, layered beads); assay type: physicochemical; settings: crystalline drug particles used to prepare Nanosuspension #001-35 (Table 13A)
Experimental: “Particle size distribution” or “PSD” or “size distribution” refers to the size of particles present in their relative proportions in a sample, as measured by laser diffraction spectroscopy. In aspects, the particle size distribution refers to the particle size distribution of all the drug particles in the composition. The particle size distribution of a sample is measured by laser diffraction spectroscopy. Laser diffraction spectrometers are commercially available as, e.g., MASTERSIZER® 3000 from Malvern Instruments Ltd, and HORIBA® LA-950 by Horiba Instruments, Inc., Irvine Calif. For laser diffraction spectroscopy, particle size distribution is generally described by D values, such as D90. In aspects, the laser diffraction spectroscopy can be analyzed by the Fraunhofer theory. In aspects, the laser diffraction spectroscopy can be analyzed by the Mie scattering theory. In aspects, the laser diffraction spectroscopy can be analyzed by a combination of the Fraunhofer theory and the Mie scattering theory.
Particle size measurements were obtained using water as dispersing media in the fraction cell of the laser diffraction particle size analyzer and analyzed using a refractive index of 1.60+0.01i in water.
Samples at different time points were withdrawn and checked for particle size distribution by laser diffraction and appearance by optical microscopy.

[7] = Assay (% LC) and impurities by HPLC of HME extrudates and tablets, initial and on storage
Text: “Total impurities” refers to in the common pharmaceutical nomenclature as the total sum of all measured impurities and degradation products from the drug substance and is also referred to as total related substances. […] A gradient method was used with 0.1% (V/V) methanesulfonic acid in water as the first mobile phase and acetonitrile as the second. A C18 column with UV detection at 225 nm was used. Acetonitrile-water mixture was used for dilution of the samples.
Chemical stability. […] The impurity profile of the formulations was compared to the crystalline Formula (III) used in the HME extrudate (Table 2C).
Thermal degradation was closely monitored due to the high processing temperature. […] Selected major impurities in the extrudate that could be attributed to the processing condition were summarized based on the relative retention time (RRT) and shown in Table 2E.
Chemical Characterization of stability samples.

[8] = initial (formulation) or API as used, listed as API

SMILES: Cc1ccc(-c2nc(N)nc3c2nnn3Cc2cccc(COC3CCOC3)n2)o1 (stereo not shown) [Formula (III)]
- Potency (Assay %) ([1]; T = 0 (formulation) or API): 100%
- % Impurity by RRT 0.80 ([1]; T = 0 or API): 0.2%
- % Impurity by RRT 0.94 ([1]; T = 0 or API): 0.2%
- % Impurity by RRT 10.6 ([1]; T = 0 or API): 0.2%
- Total Impurity % ([1]; T = 0 or API): 0.6%
- Related substances (RS) of the standard ([1]; standard, unmilled): 0.6%
- Total Impurities ([2]; API): 0.8%
- Total Impurities % ([2]; initial chemical characterization of the beads (Table 14C)): 0.80%
- Solubility dependence on pH [3]: increases significantly below pH 3
- Time to complete dissolution ([3]; acid medium, sink condition): 45 min
- Solubility of a 100 mg dose in 900 mL phosphate buffer at pH 6.8 ([3]; non-sink condition): not fully soluble
- solubility at 240 min ([4]; phosphate buffer with sodium lauryl sulphate, pH 6.8, aqueous with cosolvent or surfactant or cyclodextrin, 10 mM Phosphate buffer, pH 6.8, 0.5% SLS): 419 µg/mL
- solubility at 240 min ([4]; phosphate buffer with sodium lauryl sulphate, pH 6.8, aqueous with cosolvent or surfactant or cyclodextrin, 10 mM Phosphate buffer, pH 6.8, 1.0% SLS): 593 µg/mL
- solubility at 240 min ([4]; phosphate buffer with sodium lauryl sulphate, pH 6.8, aqueous with cosolvent or surfactant or cyclodextrin, 50 mM Phosphate buffer, pH 6.8, 0.5% SLS): 386 µg/mL
- solubility at 240 min ([4]; phosphate buffer with sodium lauryl sulphate, pH 6.8, aqueous with cosolvent or surfactant or cyclodextrin, 50 mM Phosphate buffer, pH 6.8, 1.0% SLS): 627 µg/mL
- solubility at 240 min ([4]; phosphate buffer, pH 6.8, aqueous buffer, 10 mM Phosphate buffer, pH 6.8, No Surfactant): 23 µg/mL
- solubility at 240 min ([4]; phosphate buffer, pH 6.8, aqueous buffer, 50 mM Phosphate buffer, pH 6.8, No Surfactant): 19 µg/mL
- Total Impurity % [5]: 0.82%
- Total Specified Impurity % [5]: 0.46%
- Particle Size Distribution D10 [6]: 73 nm
- Particle Size Distribution D50 [6]: 169 nm
- Particle Size Distribution D90 [6]: 714 nm
- Total Impurities ([7]; initial (Table 8E)): 0.8%
- Total Impurities % [7, 8]: 0.82% and 0.818% and 0.80%
- Total Specified Impurities % [7, 8]: 0.46% and 0.462%
